# What was measured:
# Assay in all cases: relative viability (nuclei count vs DMSO), 5 days (fraction); higher = more cells survive
# [1] = tested on: EPLC-272H
# Summary of the method: (§1)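 After 5 days of treatment, lung cancer cells in 1536-well plates were fixed and stained in a single step (final 0.05% Triton X-100, 1% formaldehyde, 1 ug/ml Hoechst) and their nuclei counted on 4× images. Treatment had been applied by pin tool the day after seeding as one drug alone or as a fixed anchor-drug dose with five library-drug doses (not always all listed) in √10 steps. Relative viability is the nuclei count of treated wells divided by that of vehicle wells, and values are medians of duplicate plates.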
# [2] = tested on: NCI-H1651
# Summary of the method: as §1
# [3] = tested on: NCI-H650
# Summary of the method: as §1
# [4] = tested on: EMC-BAC-2
# Summary of the method: as §1
# [5] = tested on: NCI-H2023
# Summary of the method: as §1
# [6] = tested on: NCI-H1355
# Summary of the method: as §1
# [7] = tested on: UMC-11
# Summary of the method: as §1
# [8] = tested on: HCC-44
# Summary of the method: as §1
# [9] = tested on: SK-MES-1
# Summary of the method: as §1
# [10] = tested on: NCI-H2405
# Summary of the method: as §1
# [11] = tested on: NCI-H1944
# Summary of the method: as §1
# [12] = tested on: NCI-H2085
# Summary of the method: as §1
# [13] = tested on: NCI-H1793
# Summary of the method: as §1
# [14] = tested on: NCI-H1395
# Summary of the method: as §1
# [15] = tested on: LCLC-103H
# Summary of the method: as §1
# [16] = tested on: NCI-H520
# Summary of the method: as §1
# [17] = tested on: H3255
# Summary of the method: as §1
# [18] = tested on: NCI-H322M
# Summary of the method: as §1
# [19] = tested on: ChaGo-K-1
# Summary of the method: as §1
# [20] = tested on: NCI-H2087
# Summary of the method: as §1
# [21] = tested on: LCLC-97TM1
# Summary of the method: as §1
# [22] = tested on: HCC-827
# Summary of the method: as §1
smiles,measurement,setting,value
CC1(C)CCC(c2ccc(Cl)cc2)=C(CN2CCN(c3ccc(C(=O)NS(=O)(=O)c4ccc(N[C@H](CCN5CCOCC5)CSc5ccccc5)c(S(=O)(=O)C(F)(F)F)c4)cc3)CC2)C1 [Navitoclax] + CC(=O)Nc1cccc(-n2c(=O)n(C3CC3)c(=O)c3c(Nc4ccc(I)cc4F)n(C)c(=O)c(C)c32)c1 [Trametinib] (partner 0.02 µM),relative viability,[1]; first compound 0.005 µM,0.239
same,relative viability,[1]; first compound 0.05 µM,0.272
same,relative viability,[1]; first compound 0.1581 µM,0.298
same,relative viability,[1]; first compound 0.5 µM,0.277
same,relative viability,[2]; first compound 0.005 µM,0.822
same,relative viability,[2]; first compound 0.01581 µM,0.921
same,relative viability,[2]; first compound 0.05 µM,0.61
same,relative viability,[2]; first compound 0.1581 µM,0.771
same,relative viability,[2]; first compound 0.5 µM,0.864
same,relative viability,[3]; first compound 0.005 µM,0.907
same,relative viability,[3]; first compound 0.01581 µM,1.2
same,relative viability,[3]; first compound 0.05 µM,0.872
same,relative viability,[3]; first compound 0.1581 µM,1.09
same,relative viability,[3]; first compound 0.5 µM,0.878
same,relative viability,[4]; first compound 0.005 µM,0.728
same,relative viability,[4]; first compound 0.01581 µM,0.87
same,relative viability,[4]; first compound 0.05 µM,0.866
same,relative viability,[4]; first compound 0.1581 µM,0.848
same,relative viability,[4]; first compound 0.5 µM,0.806
same,relative viability,[5]; first compound 0.005 µM,0.556
same,relative viability,[5]; first compound 0.01581 µM,0.724
same,relative viability,[5]; first compound 0.05 µM,0.554
same,relative viability,[5]; first compound 0.1581 µM,0.5
same,relative viability,[5]; first compound 0.5 µM,0.547
same,relative viability,[6]; first compound 0.005 µM,0.446
same,relative viability,[6]; first compound 0.01581 µM,0.468
same,relative viability,[6]; first compound 0.05 µM,0.408
same,relative viability,[6]; first compound 0.1581 µM,0.431
same,relative viability,[6]; first compound 0.5 µM,0.458
same,relative viability,[7]; first compound 0.005 µM,0.658
same,relative viability,[7]; first compound 0.01581 µM,0.703
same,relative viability,[7]; first compound 0.05 µM,0.483
same,relative viability,[7]; first compound 0.1581 µM,0.574
same,relative viability,[7]; first compound 0.5 µM,0.321
same,relative viability,[8]; first compound 0.005 µM,1.1
same,relative viability,[8]; first compound 0.01581 µM,1.05
same,relative viability,[8]; first compound 0.05 µM,0.94
same,relative viability,[8]; first compound 0.1581 µM,1.05
same,relative viability,[8]; first compound 0.5 µM,1.11
same,relative viability,[9]; first compound 0.005 µM,0.516
same,relative viability,[9]; first compound 0.01581 µM,0.681
same,relative viability,[9]; first compound 0.05 µM,0.547
same,relative viability,[9]; first compound 0.1581 µM,0.591
same,relative viability,[9]; first compound 0.5 µM,0.654
same,relative viability,[10]; first compound 0.005 µM,0.535
same,relative viability,[10]; first compound 0.01581 µM,0.75
same,relative viability,[10]; first compound 0.05 µM,0.67
same,relative viability,[10]; first compound 0.1581 µM,0.596
same,relative viability,[10]; first compound 0.5 µM,0.661
same,relative viability,[11]; first compound 0.005 µM,0.414
same,relative viability,[11]; first compound 0.01581 µM,0.407
same,relative viability,[11]; first compound 0.1581 µM,0.422
same,relative viability,[11]; first compound 0.5 µM,0.373
same,relative viability,[12]; first compound 0.005 µM,0.567
same,relative viability,[12]; first compound 0.01581 µM,0.645
same,relative viability,[12]; first compound 0.05 µM,0.402
same,relative viability,[12]; first compound 0.1581 µM,0.621
same,relative viability,[12]; first compound 0.5 µM,0.552
same,relative viability,[13]; first compound 0.005 µM,0.373
same,relative viability,[13]; first compound 0.01581 µM,0.439
same,relative viability,[13]; first compound 0.1581 µM,0.467
same,relative viability,[13]; first compound 0.5 µM,0.402
same,relative viability,[14]; first compound 0.005 µM,1.03
same,relative viability,[14]; first compound 0.01581 µM,1.17
same,relative viability,[14]; first compound 0.05 µM,1.01
same,relative viability,[14]; first compound 0.1581 µM,1.13
same,relative viability,[14]; first compound 0.5 µM,1.04
same,relative viability,[15]; first compound 0.005 µM,0.637
same,relative viability,[15]; first compound 0.01581 µM,0.731
same,relative viability,[15]; first compound 0.05 µM,0.704
same,relative viability,[15]; first compound 0.1581 µM,0.691
same,relative viability,[15]; first compound 0.5 µM,0.685
same,relative viability,[16]; first compound 0.005 µM,0.673
same,relative viability,[16]; first compound 0.01581 µM,0.653
same,relative viability,[16]; first compound 0.05 µM,0.631
same,relative viability,[16]; first compound 0.1581 µM,0.603
same,relative viability,[16]; first compound 0.5 µM,0.693
same,relative viability,[17]; first compound 0.005 µM,0.529
same,relative viability,[17]; first compound 0.01581 µM,0.7
same,relative viability,[17]; first compound 0.05 µM,0.612
same,relative viability,[17]; first compound 0.1581 µM,0.59
same,relative viability,[17]; first compound 0.5 µM,0.582
same,relative viability,[18]; first compound 0.005 µM,0.538
same,relative viability,[18]; first compound 0.01581 µM,0.533
same,relative viability,[18]; first compound 0.05 µM,0.453
same,relative viability,[18]; first compound 0.1581 µM,0.484
same,relative viability,[18]; first compound 0.5 µM,0.539
same,relative viability,[19]; first compound 0.005 µM,0.812
same,relative viability,[19]; first compound 0.01581 µM,0.859
same,relative viability,[19]; first compound 0.05 µM,0.451
same,relative viability,[19]; first compound 0.1581 µM,0.904
same,relative viability,[19]; first compound 0.5 µM,0.837
same,relative viability,[20]; first compound 0.005 µM,0.177
same,relative viability,[20]; first compound 0.01581 µM,0.194
same,relative viability,[20]; first compound 0.1581 µM,0.145
same,relative viability,[20]; first compound 0.5 µM,0.151
same,relative viability,[21]; first compound 0.005 µM,0.184
same,relative viability,[21]; first compound 0.01581 µM,0.232
same,relative viability,[21]; first compound 0.05 µM,0.186
same,relative viability,[21]; first compound 0.1581 µM,0.211
same,relative viability,[21]; first compound 0.5 µM,0.189
same,relative viability,[22]; first compound 0.005 µM,0.528
same,relative viability,[22]; first compound 0.01581 µM,0.567
same,relative viability,[22]; first compound 0.05 µM,0.446
same,relative viability,[22]; first compound 0.1581 µM,0.514
same,relative viability,[22]; first compound 0.5 µM,0.55
